# Test results as given in publication PMC11806654, “In Vitro Discovery of a Therapeutic Lead for HFMD From a Library Screen of Rocaglates/Aglains” (Journal of Medical Virology, 2025).
# Entries after “also recorded” stand apart in the source; their conditions may differ. Where two headings read alike, the source gives them in different places.
# How the values were obtained:
# NSC-34 cells [1] = experiment: alamarBlue cytotoxicity screen; settings: screen, 10 µM
# EV-A71 [2] = experiment: High-throughput immunofluorescence antiviral screen in NSC-34 cells; format: cell-based, human enterovirus A71; settings: for log reduction at 10 µM: Enterovirus A
# SARS-CoV-2 = system: SARS-CoV-2; parameters: method as in PMID 39117283; settings: cited from earlier work
# NF-κB = settings: read-out: NF-κB inhibition IC50; cited from earlier work
# A549 = system: A549; parameters: method as in PMID 11170675; settings: A549 cell line; cited from earlier work
# P-388 = system: P-388; parameters: method as in PMID 11170675; settings: P-388 cell line; cited from earlier work
# CV-A6 = experiment: Pan-enterovirus plaque assay in SH-SY5Y cells, CV-A6; format: cell-based
# Method: (§1) The complete cytotoxicity profiles of selected rocaglate/aglain derivatives against NSC‐34 or SH‐SY5Y cells were determined via the alamarBlue assay. Treated cells were incubated with the compounds for 12 h (NSC‐34) or 24 h (SH‐SY5Y). Negative and vehicle controls of this assay involved cells treated with fresh reduced serum DMEM and 0.1% DMSO, respectively. Cell viability in each treatment group was determined based on the intensity of colorimetric changes of each treatment group. […] Following incubation, infected cells were rinsed with sterile 1X PBS to remove any unbound virus particles. Specific concentrations of respective compounds were added to the cells in triplicates and incubated for 12 h (NSC‐34) or 24 h (SH‐SY5Y). At the end of the incubation period, two cycles of freeze‐thaws (−80°C; 37°C) were performed on the plates before collection of supernatants from each treatment or control group for virus titre measurement via plaque assay, as described.
# (§2) (A) NSC‐34 cells were treated with various concentrations of respective compounds, in the presence or absence of EV‐A71 (MOI 1) infection. Resulting cell viability and virus yield from respective experimental setups were determined via alamarBlue and plaque assays, respectively. […]
# EV-A71 [3] = experiment: Co-treatment assay in SH-SY5Y cells; settings: compound present during infection
# Method: (§5) The assays were performed in SH‐SY5Y cells in triplicates and resulting virus titres were quantified via plaque assays as previously described [27].
# (§6) (A) Time‐of‐addition (TOA) and time‐of‐removal (TOR) of compound 13 (8 μM) at specific time points across the EV‐A71 replication cycle in SH‐SY5Y cells. For TOA, virus‐containing media was aspirated and replaced with compound 13 (8 μM) at 0, 2, 4, 6, 8, 10, 12 or 18 h postinfection (h.p.i.). […] At 24 h.p.i., supernatant from each treatment and control group was collected for virus quantification via plaque assay. Separately, SH‐SY5Y cells were infected with EV‐A71 (MOI 1) and treated with specific concentrations of compound 13 according to previously published experimental schemes for (B) pre‐treatment, (C) co‐treatment and (D) entry‐bypass assays [27]. At 24 h.p.i., supernatant was collected and used for virus yield measurement via plaque assay. Every assay was performed in triplicates with error bars representing standard deviation from the mean of triplicates. 0.1% DMSO served as the mock control group of respective assays.
# (§7) In the pre‐treatment set‐up, host cells were first treated with the compound before virus challenge. […] Conversely, in the co‐treatment assay extracellular virions were treated with the compound before infecting the cells. […]
# EV-A71 [4] = experiment: Plaque-assay antiviral validation in NSC-34 cells; format: cell-based, human enterovirus A71; settings: for Maximum viral titre reduction observed in dose response (Log): EV-A71 MOI 1, plaque assay; for EC50: Enterovirus A, EVA71, EV-A71 MOI 1, plaque assay
# Method: as §1
# (§3) (A) NSC‐34 cells were treated with various concentrations of respective compounds, in the presence or absence of EV‐A71 (MOI 1) infection. Resulting cell viability and virus yield from respective experimental setups were determined via alamarBlue and plaque assays, respectively. […] For (B), (C) and (D), virus titres were represented in bars and shown on the left‐hand y‐axis, whereas cell viabilities were presented in lines and illustrated on the right‐hand y‐axis.
# (§4) Figure S1. Validation of cytotoxicity and antiviral profiles of compound 13 in NSC-34 cells. NSC-34 cells were treated with specific concentrations of compound 13 in the presence or absence of EV-A71 (MOI 1) infection. Resulting cell viability and virus yield from respective experimental setups were determined via alamarBlue^TM and plaque assays, respectively.
# EV-A71 [5] = experiment: Pre-treatment assay in SH-SY5Y cells; settings: cells exposed to compound before infection
# Method: as §5, §6, §7
# CV-A16 = experiment: Pan-enterovirus plaque assay in SH-SY5Y cells, CV-A16; format: cell-based, Coxsackievirus A16
# Method: as §1, §2
# in vitro = settings: mouse
# EV-A71 [6] = experiment: Plaque-assay antiviral dose response in RD cells; format: cell-based, human enterovirus A71; settings: Enterovirus A, EVA71
# Method: as §1, §2
# EV-A71 [7] = experiment: Time-of-addition / time-of-removal assay in SH-SY5Y cells; format: cell-based, human enterovirus A71; settings: 8 μM
# [8] = alamarBlue cytotoxicity dose response, SH-SY5Y; format: cell-based; settings: human, SH-SY5Y cells
# Method: as §1, §2
# EV-A71 [9] = experiment: Plaque-assay antiviral dose response in SH-SY5Y cells; format: cell-based, human enterovirus A71
# Method: as §1, §2
# [10] = alamarBlue cytotoxicity dose response, HBMECs; format: cell-based; settings: human, primary human brain microvascular endothelial cells (HBMECs)
# Method: (§8) Evaluation of cytotoxicity and antiviral profiles of compound 13 in primary human brain microvascular endothelial cells (HBMECs). HBMECs were treated with specific concentrations of compound 13, in the presence or absence of EV-A71 (MOI 1) infection. Resulting cell viability and virus yield from respective experimental setups were determined via alamarBlue^TM and plaque assays, respectively.
# EV-A71 [11] = experiment: Entry-bypass assay (viral RNA transfection) in SH-SY5Y cells; format: cell-based, human enterovirus A71
# Method: Having excluded the virus attachment and entry steps, we deemed it likely that aglain 13 targets the early post‐entry stages of EV‐A71 life cycle involving the initial virus uncoating, viral RNA genome replication or protein production. As packaging and secretion of newly synthesized EV‐A71 virions from infected cells generally begin after 6 h.p.i., compound 13 is unlikely to interfere with the later phases of the virus life cycle (Figure 6A). The ability of compound 13 to interfere with EV‐A71 post‐entry events was further corroborated via our entry‐bypass assay wherein host cells were first transfected with in vitro isolated viral RNA before compound treatment (Figure 6D). […] As compound 13 targets the intracellular replication steps of EV‐A71, its effects on two primary pre‐packaging stages of the virus life cycle, namely viral RNA replication and protein production, were evaluated.
# EV-A71 [12] = experiment: Plaque-assay antiviral dose response in primary HBMECs; format: cell-based, human enterovirus A71; settings: Enterovirus A, EVA71
# Method: as §8
# [13] = alamarBlue cytotoxicity dose response, RD; format: cell-based; settings: human, RD cells
# EV-A71 VP2 = experiment: Immunoblotting of viral protein; settings: SH-SY5Y cells, versus vehicle control
# Method: Cells from specific treatment and control groups were lysed with lysis buffer containing 1X Laemmli buffer. The resulting cell lysates were heated for 10 min at 95°C and subjected to SDS‐PAGE run in 10% acrylamide gels at 100 V for 2 h. The proteins were then transferred to a polyvinylidene fluoride membrane using the Trans‐Blot Turbo system (Bio‐Rad). Following a 20 min membrane blocking using 2% bovine serum albumin (BSA) dissolved in Tris‐buffered saline‐Tween 20 (TBST), specific viral protein and host loading controls were probed using the mouse antibodies targeting EV‐A71 VP2 (MAB979) and host β‐actin, respectively. After 1 h incubation with constant rocking at room temperature, the membranes were subjected to three rounds of washes using TBST before incubation at room temperature with horseradish peroxidase (HRP) conjugated goat anti‐mouse IgG secondary antibody (Thermo Fisher Scientific) for 1 h. Following three rounds of membrane washing with TBST, specific protein bands were developed using the Immobilon Western Chemiluminescent HRP substrate (Merck Millipore) for 3 min. […]
# Lysates of EV‐A71 (MOI 1)‐infected SH‐SY5Y cells treated with specific concentrations of compound 13 were used for (A) qRT‐PCR‐based viral strand‐specific RNA quantification or (B) immunoblotting measurement of specific protein levels. […]
# [14] = system: replication-defective EV-A71 replicon; experiment: Nano-luciferase replicon assay, replication-defective; settings: SH-SY5Y cells, 24 h
# Method: (§9) Using DharmaFECT 1 transfection reagent (Dharmacon), SH‐SY5Y cells seeded in 96‐well plates were transfected with either our established replication‐competent or replication‐defective EV‐A71 replicon construct [27, 29] and incubated for 4 h. At the end of incubation, the transfected cells were washed with sterile 1X PBS and treated with 0.1% DMSO or respective concentrations of test compound or positive controls. Guanidine hydrochloride (GuHCl) was used as positive control for the replication‐competent replicon, and cycloheximide (CHX) was used as positive control for the replication‐defective replicon. After 24 h, luciferase signal detection was subsequently performed using the Nano‐Glo kit (Promega, Madison, WI, USA) with a GLOMAX Multi‐Detection System microplate reader (Promega, Madison, WI, USA).
# (§10) Guanidine hydrochloride (GuHCl), an eukaryotic RNA transcription inhibitor [38], and cycloheximide (CHX), an inhibitor of the elongation phase during RNA translation [39], were used as positive controls of respective assays. 0.1% DMSO served as the mock control group of respective assays. Luminescence readings generated by SH‐SY5Y cells transfected with either the established replication‐competent or replication‐defective replicons [27] were measured using a microplate reader and normalized against the DMSO control. […]
# [15] = alamarBlue cytotoxicity dose response, NSC-34; settings: mouse
# Method: as §1, §3, §4
# [16] = system: replication-competent EV-A71 replicon; experiment: Nano-luciferase replicon assay, replication-competent; settings: SH-SY5Y cells, 24 h
# Method: as §9, §10
# [17] = system: positive- and negative-sense RNA of EV-A71; experiment: qRT-PCR strand-specific viral RNA quantification; format: cell-based, human enterovirus A71; settings: 6 and 8 µM, 12 and 24 h.p.i., SH-SY5Y cells
# [18] = alamarBlue cytotoxicity screen; settings: mouse, NSC-34 cells
# NSC-34 cells [19] = experiment: in vitro
# Method: as §1, §3, §4
# [20] = EVA71, screen, 10 µM, NSC-34 cells, EV-A71 MOI 1, 12 h, read-out: EV-A71 inhibition (logs), reduction in viral titre
# [21] = EVA71, NSC-34, 12 h, read-out: EV-A71 inhibition (logs), reduction in viral titre, screen, 10 µM, NSC-34 cells, EV-A71 MOI 1, 12 h
structure (smiles),measurement,setting,value
"CONC(=O)C1C(O)C2(O)c3c(OC)cc(OC)cc3OC2(c2ccc(OC)cc2)C1c1ccccc1 (stereo not shown) [Compound 3, CR‐1‐31b, reference compound]",host cell cytotoxicity in screen,NSC-34 cells [1],unacceptably toxic; also recorded: high level of host cell cytotoxicity
same,log reduction at 10 µM,EV-A71 [2]; [20],> 2
same,antiviral activity in screen,"EV-A71 [2]; screen, 10 µM, NSC-34 cells",appreciable antiviral activity
COc1ccc(C23Oc4cc(OC)cc(OC)c4C24NC(C)=NC4(O)C(C(=O)N(C)OC)C3c2ccccc2)cc1 (stereo not shown) [Compound 4],inhibition of SARS-CoV-2 replication,SARS-CoV-2,inhibition of SARS‐CoV‐2 replication
same,host cell cytotoxicity in screen,NSC-34 cells [1],unacceptably toxic; also recorded: high level of host cell cytotoxicity
same,log reduction at 10 µM,EV-A71 [2]; [21],> 2
same,antiviral activity in screen,"EV-A71 [2]; screen, 10 µM, NSC-34 cells",appreciable antiviral activity
"COC(=O)C1C(O)C2(O)c3c(OC)cc(OC)cc3OC2(c2ccc(OC)cc2)C1c1ccccc1 (stereo not shown) [Compound 6, reference compound]",log reduction at 10 µM,EV-A71 [2]; [20],> 2
same,antiviral activity in screen,"EV-A71 [2]; screen, 10 µM, NSC-34 cells",appreciable antiviral activity
"COc1ccc(C23Oc4cc(OC)cc(OC)c4C(O)(C(C(=O)N4CCCC4OC)C2c2ccccc2)C3O)cc1 (stereo not shown) [Compound 8, (‐)‐ponapensin]",IC50,NF-κB,0.06 µM
"CC=C(C)C(=O)NC1CCCN1C(=O)C1C(c2ccccc2)C2(c3ccc(OC)cc3)Oc3cc(OC)cc(OC)c3C1(O)C2O (stereo not shown) [Compound 9, (‐)‐elliptifoline]",cytotoxic activity ED50,A549,18.9 µg/mL
same,cytotoxic activity ED50,P-388,3.4 µg/mL
COc1ccc(C23Oc4cc(OC)cc(OC)c4C(O)(C(c4c(F)c(F)c(F)c(F)c4F)C2c2ccccc2)C3O)cc1 (stereo not shown) [Compound 13],infectious CV-A6 titers,"CV-A6; 6 and 8 µM, SH-SY5Y cells",significantly reduced
same,EC50,"CV-A6; Enterovirus A, CVA6, CV-A6 in SH-SY5Y cells",0.51 µM
same,"inhibition of EV-A71 replication, co-treatment",EV-A71 [3],ineffective inhibition; also recorded: no significant inhibition
same,downregulation of virus titer,EV-A71 [4]; 15 µM,approximately 2 logs
same,selectivity index (SI = CC50/EC50),EV-A71 [4]; EV-A71,6.1
same,Maximum viral titre reduction observed in dose response (Log),EV-A71 [4],2.53 Log
same,EC50,EV-A71 [4],3.57 µM
same,"inhibition of EV-A71 replication, pre-treatment",EV-A71 [5],ineffective inhibition; also recorded: no significant inhibition
same,infectious CV-A16 titers,"CV-A16; 6 and 8 µM, SH-SY5Y cells",significantly reduced
same,EC50,"CV-A16; Enterovirus A, CVA16, CV-A16 in SH-SY5Y cells",0.8 µM
same,viability at 10 µM,"in vitro; Cell Viability (%), screen, 10 µM, NSC-34 cells, 12 h",> 90%
same,EC50,EV-A71 [6],0.43 µM
same,time of addition at which EV-A71 yields were suppressed,EV-A71 [7]; TOA,< 6 h.p.i.
same,viral load on time-of-removal,"EV-A71 [7]; TOR, every time point up to 18 h.p.i.",continuous reduction in the viral load
same,CC50 at 24 h,[8],11 µM
same,downregulation of virus titer,"EV-A71 [9]; 8 µM, SH-SY5Y cells",approximately 2 logs
same,EC50,"EV-A71 [9]; Enterovirus A, EVA71, EV-A71 in SH-SY5Y cells",5.43 µM
same,CC50,[10],89.4 µM
same,"suppression of virus yields, entry-bypass",EV-A71 [11]; 6 µM,0.88 logs
same,"suppression of virus yields, entry-bypass",EV-A71 [11]; 8 µM,2.27 logs
same,EC50,EV-A71 [12],32.8 µM
same,CC50,[13],11.2 µM
same,Cell Viability (%),NSC-34 cells [1]; 12 h,91%
same,downregulation of viral protein expression levels (VP2),EV-A71 VP2,> 50%
same,"luciferase signal, replication-defective replicon",[14],significantly decreased
same,log reduction at 10 µM,EV-A71 [2]; [21],2.3
same,CC50 at 12 h,[15],21.8 µM
same,"luciferase signal, replication-competent replicon",[16],significantly decreased
same,positive- and negative-sense RNA of EV-A71,[17],significant decrease
COc1ccc(C23Oc4cc(OC)cc(OC)c4C(O)(C2=O)C(c2ccccc2)C3c2ccccc2)cc1 (stereo not shown) [Compound 14],Maximum viral titre reduction observed in dose response (Log),EV-A71 [4],0.82 Log
same,EC50,EV-A71 [4],18.9 µM
same,"viability at 12 h, 10 µM",[18],106%
same,log reduction at 10 µM,"EV-A71 [2]; EVA71, NSC-34, 12 h, screen, 10 µM, NSC-34 cells, EV-A71 MOI 1, 12 h, read-out: EV-A71 inhibition (logs), reduction in viral titre",~1
same,"EV-A71 inhibition (logs), reduction in viral titre","EV-A71 [2]; screen, 10 µM, NSC-34 cells, EV-A71 MOI 1, 12 h",1.0 logs
same,CC50 at 12 h,[15]; NSC-34 cells,42.6 µM
COC(=O)C1C(c2ccccc2)C2(c3ccc(Br)cc3)C(=O)C1(O)c1c(OC)cc(OC)cc1N2C (stereo not shown) [Compound 15],Maximum viral titre reduction observed in dose response (Log),EV-A71 [4],0.74 Log
same,EC50,EV-A71 [4],5.27 µM
same,"viability at 12 h, 10 µM",in vitro,91%
same,log reduction at 10 µM,EV-A71 [2]; [21],1.2
same,CC50 at 12 h,[15],> 50 µM
COC(=O)C1C(c2ccccc2)C2(c3ccc(Br)cc3)C(O)C1(O)c1c(OC)cc(OC)cc1N2C (stereo not shown) [Compound 16],Maximum viral titre reduction observed in dose response (Log),EV-A71 [4],0.89 Log
same,EC50,EV-A71 [4],44.2 µM
same,"viability at 12 h, 10 µM",in vitro,81%
same,log reduction at 10 µM,EV-A71 [2]; [21],1.4
same,antiviral activity in screen,"EV-A71 [2]; screen, 10 µM, NSC-34 cells",showed antiviral activity
same,CC50 at 12 h,[15],> 50 µM
COC(=O)C1C(c2ccccc2)C2(c3ccc(OC)cc3)Oc3cc(OC)cc(OC)c3C1(O)C2O (stereo not shown) [Compound 17],"viability at 12 h, 10 µM",in vitro,108%
same,host cell cytotoxicity in screen,NSC-34 cells [1],non‐cytotoxic
same,log reduction at 10 µM,EV-A71 [2]; [21],0.1
same,antiviral activity in screen,"EV-A71 [2]; screen, 10 µM, NSC-34 cells",no measurable antiviral activity
COC(=O)C1C(c2ccccc2)C2(c3ccc(Br)cc3)Oc3cc(OC)cc(OC)c3C1(O)C2=O (stereo not shown) [Compound 18],host cell cytotoxicity in dose response,NSC-34 cells [19],significant degree of cytotoxicity
same,CC50 at 12 h,[15],13.1 µM
